This passage reports mass density results from the NIST ThermoML archive (doi:10.1016/j.jct.2004.04.010).

The data set in a line: mn = molality of the nth substance listed, in mol/kg. As to conditions: 298.15 K, 101.3 kPa, Liquid.

± gives the expanded uncertainty stated by the source.

As a reminder, the mass density is mass per unit of volume. Take `O=C[C@H](O)[C@@H](O)[C@@H](O)[C@H](O)CO` [(+)-galactose] + O: the mass density is, setting by setting: (m1 = 0.2) 1010.68 ± 0.22 kg/m3; (m1 = 0.4) 1023.7 ± 0.28 kg/m3; (m1 = 0.6) 1036.15 ± 0.33 kg/m3; (m1 = 0.8) 1047.98 ± 0.39 kg/m3; (m1 = 1) 1059.4 ± 0.45 kg/m3; (m1 = 1.2) 1070.22 ± 0.5 kg/m3.

For `O=C[C@@H](O)[C@H](O)[C@H](O)CO` [D-(-)-arabinose] + O, the mass density came to 1008.06 ± 0.2 kg/m3 (m1 = 0.2); 1018.64 ± 0.22 kg/m3 (m1 = 0.4); 1028.67 ± 0.23 kg/m3 (m1 = 0.6); 1038.38 ± 0.24 kg/m3 (m1 = 0.8); 1047.69 ± 0.24 kg/m3 (m1 = 1); 1056.36 ± 0.27 kg/m3 (m1 = 1.2).

As for `O=C[C@H](O)[C@@H](O)[C@H](O)CO` [D-xylose] + O, the mass density by setting is: (m1 = 0.2) 1007.72 ± 0.21 kg/m3; (m1 = 0.4) 1017.95 ± 0.26 kg/m3; (m1 = 0.6) 1027.8 ± 0.3 kg/m3; (m1 = 0.8) 1037.28 ± 0.35 kg/m3; (m1 = 1) 1046.38 ± 0.39 kg/m3; (m1 = 1.2) 1055.19 ± 0.44 kg/m3.

With `[Cl-].[Cs+]` [cesium chloride] + O, the mass density reads like this: (m1 = 0.015) 998.969 ± 0.14 kg/m3; (m1 = 0.03) 1000.88 ± 0.14 kg/m3; (m1 = 0.05) 1003.43 ± 0.14 kg/m3; (m1 = 0.075) 1006.61 ± 0.14 kg/m3; (m1 = 0.1) 1009.77 ± 0.15 kg/m3.
